Tests used:
[1] = molecular target: T1, Steroid 5-alpha-reductase (Rattus norvegicus, UniProt P24008+P31214); assay: Ability to inhibit Steroid 5-alpha-reductase in rat using Enzyme kinetics method.
T1 sequence (P24008 whole entry): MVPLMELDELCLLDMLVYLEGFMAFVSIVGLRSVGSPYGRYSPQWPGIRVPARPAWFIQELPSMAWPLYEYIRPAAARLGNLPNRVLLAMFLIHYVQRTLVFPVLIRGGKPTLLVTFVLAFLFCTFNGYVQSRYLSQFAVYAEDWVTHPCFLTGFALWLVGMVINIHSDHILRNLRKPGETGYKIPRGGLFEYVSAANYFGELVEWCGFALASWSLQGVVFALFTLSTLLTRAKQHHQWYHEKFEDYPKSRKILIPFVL
T1 sequence (P31214 whole entry): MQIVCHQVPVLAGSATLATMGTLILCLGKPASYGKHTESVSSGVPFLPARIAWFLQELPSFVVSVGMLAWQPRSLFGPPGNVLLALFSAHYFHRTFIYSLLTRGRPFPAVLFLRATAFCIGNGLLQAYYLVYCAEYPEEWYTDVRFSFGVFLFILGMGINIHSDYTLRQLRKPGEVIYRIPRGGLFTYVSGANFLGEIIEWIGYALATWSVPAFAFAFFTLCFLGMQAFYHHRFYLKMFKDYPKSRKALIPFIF

[2] = molecular target: T1, Steroid 5-alpha-reductase; assay: Ability to inhibit Steroid 5-alpha-reductase in rat using Isotope method [3H]T to [3H]-DHT]

Row | Ki [1] | Ki [2] | SMILES
1 | >> 1000 nM | >> 1000 nM | CC(=O)C1=CC2=CCC3C(CC[C@@]4(C)C3CC[C@@H]4C(=O)NC(C)(C)C)[C@@]2(C)CC1 (some centres not stated)
2 | 18.1 nM | 68.5 nM | CCOP(=O)(OCC)C1=CC2=CCC3C(CC[C@@]4(C)C3CC[C@@H]4C(=O)NC(C)(C)C)[C@@]2(C)CC1 (some centres not stated)
3 | >> 1000 nM | >> 1000 nM | CC(C)(C)NC(=O)[C@H]1CCC2C3CC=C4C=CCC[C@]4(C)C3CC[C@@]21C (some centres not stated)
4 | >> 1000 nM | >> 1000 nM | CCN(CC)C(=O)C1=CC2=CCC3C(CC[C@@]4(C)C3CC[C@@H]4C(=O)NC(C)(C)C)[C@@]2(C)CC1 (some centres not stated)
5 | 45.8 nM | 100.2 nM | CC(C)(C)NC(=O)[C@H]1CCC2C3CC=C4C=C(C#Cc5ccccc5)CC[C@]4(C)C3CC[C@@]21C (some centres not stated)
6 | 54.7 nM | 88.2 nM | CC(C)(C)NC(=O)[C@H]1CC[C@H]2[C@@H]3CC[C@H]4NC(=O)C=C[C@]4(C)[C@H]3CC[C@]12C [FINASTERIDE]

Reference: ChEMBL document CHEMBL1131545, “A practical synthesis of 3-substituted delta 3,5(6)-steroids as new potential 5 alpha-reductase inhibitor” (Bioorg Med Chem Lett, 1998)
